# Columns and labels:
# Assay in all cases: relative viability (nuclei count vs DMSO), 5 days (fraction); higher = more cells survive
# [1] = compound: CN1CCN(CC1)C2=CC(=C(C=C2)NC3=NC(=C(S3)C(=O)C4=C(C=CC=C4Cl)Cl)N)OC [XMD14-99] + COc1cc2c(Oc3ccc(NC(=O)C4(C(=O)Nc5ccc(F)cc5)CC4)cc3F)ccnc2cc1OCCCN1CCOCC1 [Foretinib] (partner 0.25 µM)
# In short: (§1)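 Nuclei were stained with Hoechst during a one-step fixation (final 0.05% Triton X-100, 1% formaldehyde, 1 ug/ml Hoechst) carried out 5 days after dosing, then counted on 4× images. The cells, lung cancer lines in 1536-well plates, had been dosed by pin tool the day after seeding with one drug alone or a fixed anchor-drug dose plus five library-drug doses (not always all listed) in √10 steps. Relative viability is the nuclei count in treated wells divided by that in vehicle wells, and each value is the median of duplicate plates.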
# [2] = compound: N[C@@H]1CCCN(c2c(/C=C3\SC(=O)NC3=O)cccc2-c2ccccc2)C1 [AZD1208] + COc1cccc2cc(-c3nc([C@H]4CC[C@H](C(=O)O)CC4)n4ncnc(N)c34)[nH]c12 [OSI-027] (partner 0.5 µM)
# In short: as §1
# [3] = compound: N[C@@H]1CCCN(c2c(/C=C3\SC(=O)NC3=O)cccc2-c2ccccc2)C1 [AZD1208] + CS(=O)(=O)CCNCc1ccc(-c2ccc3ncnc(Nc4ccc(OCc5cccc(F)c5)c(Cl)c4)c3c2)o1 [Lapatinib] (partner 2 µM)
# In short: as §1
# [4] = compound: N[C@@H]1CCCN(c2c(/C=C3\SC(=O)NC3=O)cccc2-c2ccccc2)C1 [AZD1208] + Nc1nc2[nH]cc(CCc3ccc(C(=O)N[C@@H](CCC(=O)O)C(=O)O)cc3)c2c(=O)[nH]1 [Pemetrexed] (partner 0.2 µM)
# In short: as §1
Cell Line,relative viability ([1]; first compound 0.08 µM),relative viability ([1]; first compound 0.8 µM),relative viability ([1]; first compound 2.53 µM),relative viability ([1]; first compound 8 µM),relative viability ([2]; first compound 0.08 µM),relative viability ([2]; first compound 0.253 µM),relative viability ([2]; first compound 0.8 µM),relative viability ([2]; first compound 2.53 µM),relative viability ([2]; first compound 8 µM),relative viability ([3]; first compound 0.08 µM),relative viability ([3]; first compound 0.253 µM),relative viability ([3]; first compound 0.8 µM),relative viability ([3]; first compound 2.53 µM),relative viability ([3]; first compound 8 µM),relative viability ([4]; first compound 0.08 µM),relative viability ([4]; first compound 0.253 µM),relative viability ([4]; first compound 0.8 µM),relative viability ([4]; first compound 2.53 µM),relative viability ([4]; first compound 8 µM)
201T,1.05,1.1,1.01,0.956,0.81,0.78,0.512,0.53,0.477,1.03,0.992,1.04,1.08,0.913,0.346,0.339,0.305,0.269,0.327
A549,0.899,0.916,0.787,0.693,,,,,,0.899,0.921,0.859,0.828,0.721,,,,,
A-427,1.04,0.988,0.814,0.712,0.453,0.543,0.469,0.41,0.378,1.11,0.988,0.843,1.15,0.815,0.971,1.05,0.847,1.03,0.911
ABC-1,1.14,0.883,0.957,0.937,0.417,0.444,0.487,0.377,0.436,1.14,0.904,1.05,1.09,1.06,,,,,
BEN,0.662,0.695,0.705,0.678,0.301,0.254,0.278,0.294,0.238,0.677,0.449,0.524,0.568,0.437,0.877,0.525,0.568,0.612,0.558
CAL-12T,1.09,1.06,0.876,1.02,0.61,0.668,0.583,0.506,0.436,0.634,0.771,0.6,0.695,0.588,1.21,1.22,1.18,1.23,1.14
COR-L23,0.901,0.962,0.812,0.572,0.762,0.779,0.642,0.728,0.452,0.991,1.18,0.942,1.02,0.916,0.188,0.193,0.195,0.206,0.194
COR-L 105,1.06,1.25,0.991,0.734,0.613,0.745,0.542,,0.736,0.366,0.334,0.299,0.29,0.36,1.1,0.982,1.01,1.2,1.08
Calu-6,0.897,0.905,0.843,0.593,,,,,,1.04,1.19,1.04,1.08,1.03,,,,,
ChaGo-K-1,0.82,0.939,0.88,0.913,0.579,0.546,0.49,0.421,0.402,,,,,,0.269,0.261,0.293,0.261,0.25
EBC-1,0.113,0.11,0.112,0.0979,,,,,,0.195,0.249,0.193,0.218,0.2,,,,,
EKVX,0.768,0.888,0.876,0.662,0.674,0.651,0.634,0.673,0.648,0.194,0.191,0.194,0.168,0.176,0.411,0.441,0.404,0.425,0.404
EMC-BAC-2,1.05,0.978,0.854,0.859,0.364,0.37,0.346,0.296,0.315,0.827,0.889,0.783,0.835,0.723,0.462,0.474,0.511,0.524,0.54
EPLC-272H,0.748,0.764,0.684,0.444,0.255,0.289,0.276,0.247,0.281,0.987,0.866,0.841,0.825,0.717,0.353,0.422,0.376,0.342,0.406
H3255,0.956,0.9,0.737,0.709,0.506,0.54,0.429,0.491,0.543,0.258,0.231,0.225,0.219,0.22,0.591,0.577,0.597,0.524,0.598
HARA,0.791,0.793,0.748,0.757,0.467,0.497,0.468,0.433,0.277,0.727,0.61,0.686,0.737,0.594,0.251,0.206,0.292,0.282,0.227
HCC-15,1.01,1.01,0.9,0.693,0.63,0.673,0.491,0.467,0.437,0.871,0.858,0.874,0.858,0.831,0.215,0.214,0.225,0.237,0.213
HCC-44,,,,,0.504,0.496,0.512,0.331,0.485,1.01,0.987,1.06,0.999,0.947,0.636,0.592,0.62,0.688,0.639
HCC-78,0.506,0.489,0.566,0.53,0.41,0.395,0.375,0.374,0.332,0.779,0.888,0.621,0.845,0.966,0.91,0.908,0.897,0.87,0.912
HCC-366,0.912,0.943,0.96,0.918,0.963,0.96,0.837,0.819,0.672,1.06,1.17,0.951,1.13,0.933,0.182,0.206,0.194,0.581,0.223

Cell Line,relative viability ([1]; first compound 0.08 µM),relative viability ([1]; first compound 0.8 µM),relative viability ([1]; first compound 2.53 µM),relative viability ([1]; first compound 8 µM),relative viability ([2]; first compound 0.08 µM),relative viability ([2]; first compound 0.253 µM),relative viability ([2]; first compound 0.8 µM),relative viability ([2]; first compound 2.53 µM),relative viability ([2]; first compound 8 µM),relative viability ([3]; first compound 0.08 µM),relative viability ([3]; first compound 0.253 µM),relative viability ([3]; first compound 0.8 µM),relative viability ([3]; first compound 2.53 µM),relative viability ([3]; first compound 8 µM),relative viability ([4]; first compound 0.08 µM),relative viability ([4]; first compound 0.253 µM),relative viability ([4]; first compound 0.8 µM),relative viability ([4]; first compound 2.53 µM),relative viability ([4]; first compound 8 µM)
HCC-827,1.06,0.935,0.978,0.727,0.688,0.751,0.707,0.617,0.667,0.15,0.192,0.189,0.173,0.226,0.278,0.26,0.308,0.269,0.265
HOP-62,1.01,1.05,1.02,1.01,0.863,0.965,0.726,0.642,0.632,1.14,1.05,0.985,0.875,0.889,0.298,0.345,0.28,0.289,0.269
IA-LM,1.05,0.964,0.978,0.458,,,,,,0.766,0.948,0.766,0.621,0.633,,,,,
LC-2-ad,1,1.01,0.849,0.836,0.788,0.776,0.624,0.707,0.651,0.961,1.01,1.04,0.94,1.03,0.246,0.278,0.269,0.246,0.272
LCLC-97TM1,0.918,0.855,0.918,0.641,0.456,0.476,0.344,0.354,0.29,1.03,0.92,,0.882,0.546,0.188,0.176,0.125,0.175,0.171
LCLC-103H,0.802,0.691,0.734,0.607,0.485,0.371,0.378,0.382,0.376,,,,,,0.453,0.46,0.51,0.43,0.477
LK-2,0.99,1.17,0.991,1.2,0.184,0.155,0.157,0.123,0.144,0.738,0.616,0.63,0.39,0.447,0.344,0.25,,0.219,0.163
LOU-NH91,0.919,0.962,0.916,0.802,0.737,0.577,0.631,0.694,0.619,0.727,0.704,0.662,0.703,0.583,0.357,0.409,0.421,0.357,0.434
LU99A,0.893,0.872,0.729,0.649,0.295,0.29,0.291,0.264,0.238,0.864,0.985,0.937,0.919,0.728,0.198,0.237,0.233,0.198,0.205
LXF-289,0.964,0.949,0.923,0.898,0.821,0.814,0.602,0.647,0.648,0.941,0.954,0.917,0.958,0.868,0.887,1.01,0.924,0.634,1.02
NCI-H441,0.766,0.993,0.849,0.751,0.518,0.535,0.396,0.493,0.352,,,,,,0.234,0.263,0.237,0.263,0.256
NCI-H522,,,,,0.771,0.575,0.618,0.691,0.701,,,,,,0.975,0.986,0.979,0.824,0.828
NCI-H727,0.95,0.893,0.684,0.555,0.576,0.561,0.414,0.468,0.548,0.597,0.754,0.755,0.672,0.59,,,,,
NCI-H1299,1.11,1.02,1.1,0.949,,,,,,0.984,0.938,0.96,1,0.945,,,,,
NCI-H1623,0.852,0.86,0.88,0.68,0.445,0.38,0.406,0.366,0.431,,,,,,,,,,
NCI-H1648,,,,,0.246,0.244,0.268,0.244,0.274,,,,,,0.626,0.629,0.814,0.891,1.07
NCI-H1703,0.345,0.329,0.339,0.273,,,,,,0.852,1.04,0.804,1.05,0.626,,,,,
NCI-H1792,,,,,0.679,0.778,0.614,0.607,0.61,0.874,0.999,0.885,0.908,0.757,0.912,1.11,,0.698,0.556
NCI-H2342,1.15,0.943,0.973,0.784,0.575,0.664,0.488,0.627,0.574,,,,,,0.869,0.749,0.699,0.738,0.568
SW 900,1.02,0.694,0.802,0.718,0.678,0.578,0.398,0.439,0.438,,,,,,0.475,0.443,0.454,0.472,0.469

# — the supplement of paper PMC10307832
